How the values were obtained:
[1] = Efflux ratio of apparent permeability from basolateral to apical side over apical to basolateral side in human Caco-2 cells incubated for 120 mins by LC-MS/MS analysis; assay type: ADME, cell-based
[2] = biological target: Cytochrome P450 2D6 (Homo sapiens, UniProt P10635); assay: Inhibition of human CYP2D6 expressed in baculovirus infected insect cells using AMMC as substrate incubated for 40 mins in presence of NADPH by UPLC-MS analysis; assay type: ADME
[3] = Intrinsic clearance in human liver microsomes in presence of NADPH incubated for 60 mins by LC-MS/MS analysis; assay type: ADME, Microsome; settings: read-out: CLH
[4] = biological target: Cytochrome P450 2C9 (Homo sapiens, UniProt P11712); assay: Inhibition of human CYP2C9 expressed in baculovirus infected insect cells using MFC as substrate incubated for 30 mins in presence of NADPH by UPLC-MS analysis; assay type: ADME
[5] = biological target: Voltage-gated inwardly rectifying potassium channel KCNH2 (Homo sapiens, UniProt Q12809); assay: Inhibition of hERG expressed in HEK293 cells incubated for 30 mins by FluxOR dye based fluorescence analysis; assay type: toxicity, cell-based
[6] = Stability in human liver microsomes assessed as remaining compound in absence of NADPH incubated for 60 mins by LC-MS/MS analysis; assay type: ADME, Microsome; settings: read-out: Stability
[7] = Apparent permeability in human Caco-2 cells incubated for 120 mins by LC-MS/MS analysis; assay type: ADME, cell-based
[8] = organism: Homo sapiens; assay: Inhibition of human PKG using FAM-IP3R peptide as fluorescent substrate at 10 uM preincubated for 15 mins followed by substrate addition measured after 1 hr by fluorescence polarization based IMAP assay relative to control; settings: time 75.0 min
[9] = Protein binding in CD-1 mouse liver microsomes assessed as unbound fraction incubated for 17 hrs by LC-MS analysis; assay type: ADME, Microsome
[10] = Stability in CD-1 mouse liver microsomes assessed as remaining compound in absence of NADPH incubated for 60 mins by LC-MS/MS analysis; assay type: ADME, Microsome; settings: read-out: Stability
[11] = tested on: Plasmodium berghei; assay: Antimalarial activity against Plasmodium berghei sporozoites expressing Luciferase infected in human HepG2 cells assessed as reduction in parasite growth incubated for 48 hrs by ONE-Glo luciferase assay; assay type: functional, organism-based
[12] = tested on: Plasmodium falciparum; assay: Antimalarial activity against Plasmodium falciparum expressing PKG T618Q mutant infected in human erythrocytes assessed as reduction in parasitemia incubated for 72 hrs by SYBR green I and Mitotracker deep red dye based flow cytometric analysis; assay type: functional, organism-based
[13] = Intrinsic clearance in CD-1 mouse liver microsomes in presence of NADPH incubated for 60 mins by LC-MS/MS analysis; assay type: ADME, Microsome; settings: read-out: CLH
[14] = Protein binding in C57BL/6 mouse plasma assessed as unbound fraction incubated for 22 hrs by LC-MS/MS analysis; assay type: ADME, cell-free
[15] = Half life in CD-1 mouse liver microsomes in presence of NADPH incubated for 60 mins by LC-MS/MS analysis; assay type: ADME, Microsome
[16] = Half life in human liver microsomes in presence of NADPH incubated for 60 mins by LC-MS/MS analysis; assay type: ADME, Microsome
[17] = biological target: Cytochrome P450 3A4 (Homo sapiens, UniProt P08684); assay: Inhibition of human CYP3A4 expressed in baculovirus infected insect cells using midazolam as substrate incubated for 30 mins in presence of NADPH by UPLC-MS analysis; assay type: ADME
[18] = tested on: Plasmodium falciparum; assay: Antimalarial activity against drug-sensitive Plasmodium falciparum 3D7 infected in human erythrocytes assessed as reduction in parasitemia incubated for 72 hrs by SYBR green I and Mitotracker deep red dye based flow cytometric analysis; assay type: functional, organism-based
[19] = Inhibition of recombinant Plasmodium falciparum PKG using FAM-PKA peptide as fluorescent substrate preincubated for 15 mins followed by substrate addition measured after 1 hr by fluorescence polarization based IMAP assay
[20] = Aqueous solubility of compound in PBS at pH 7.4 incubated for 90 mins by UV spectrophotometric analysis; assay type: physicochemical
[21] = Plasmodium berghei, HepG2, 48 h
[22] = Plasmodium falciparum, 3D7, 72 h

Chain of Cytochrome P450 3A4 (P08684 whole entry): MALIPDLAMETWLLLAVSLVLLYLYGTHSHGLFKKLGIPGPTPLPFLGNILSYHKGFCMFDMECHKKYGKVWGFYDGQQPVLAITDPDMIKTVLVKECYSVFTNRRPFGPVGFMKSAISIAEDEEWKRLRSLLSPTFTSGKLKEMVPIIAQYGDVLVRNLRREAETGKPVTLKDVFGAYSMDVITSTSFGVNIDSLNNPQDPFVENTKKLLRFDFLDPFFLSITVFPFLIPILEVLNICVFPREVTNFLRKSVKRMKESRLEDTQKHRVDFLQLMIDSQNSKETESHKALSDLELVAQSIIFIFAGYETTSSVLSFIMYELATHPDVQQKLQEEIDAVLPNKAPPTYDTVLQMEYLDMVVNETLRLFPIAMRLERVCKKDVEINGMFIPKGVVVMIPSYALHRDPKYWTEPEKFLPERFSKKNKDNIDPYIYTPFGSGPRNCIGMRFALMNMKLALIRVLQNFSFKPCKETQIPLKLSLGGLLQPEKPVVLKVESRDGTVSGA
Chain of Cytochrome P450 2D6 (P10635 whole entry): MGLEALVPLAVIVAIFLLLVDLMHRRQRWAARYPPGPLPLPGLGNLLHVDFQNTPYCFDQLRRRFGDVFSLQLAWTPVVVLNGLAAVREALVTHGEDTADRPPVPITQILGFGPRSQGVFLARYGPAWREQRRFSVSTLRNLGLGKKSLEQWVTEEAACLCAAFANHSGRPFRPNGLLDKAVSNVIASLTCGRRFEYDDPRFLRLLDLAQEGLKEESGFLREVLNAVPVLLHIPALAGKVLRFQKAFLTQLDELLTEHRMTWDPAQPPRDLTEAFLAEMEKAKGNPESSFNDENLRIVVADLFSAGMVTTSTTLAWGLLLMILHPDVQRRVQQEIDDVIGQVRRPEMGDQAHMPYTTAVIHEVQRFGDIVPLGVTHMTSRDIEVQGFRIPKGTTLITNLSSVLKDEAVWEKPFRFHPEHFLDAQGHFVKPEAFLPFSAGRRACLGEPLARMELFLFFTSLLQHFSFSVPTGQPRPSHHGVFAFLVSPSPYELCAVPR
Chain of Cytochrome P450 2C9 (P11712 whole entry): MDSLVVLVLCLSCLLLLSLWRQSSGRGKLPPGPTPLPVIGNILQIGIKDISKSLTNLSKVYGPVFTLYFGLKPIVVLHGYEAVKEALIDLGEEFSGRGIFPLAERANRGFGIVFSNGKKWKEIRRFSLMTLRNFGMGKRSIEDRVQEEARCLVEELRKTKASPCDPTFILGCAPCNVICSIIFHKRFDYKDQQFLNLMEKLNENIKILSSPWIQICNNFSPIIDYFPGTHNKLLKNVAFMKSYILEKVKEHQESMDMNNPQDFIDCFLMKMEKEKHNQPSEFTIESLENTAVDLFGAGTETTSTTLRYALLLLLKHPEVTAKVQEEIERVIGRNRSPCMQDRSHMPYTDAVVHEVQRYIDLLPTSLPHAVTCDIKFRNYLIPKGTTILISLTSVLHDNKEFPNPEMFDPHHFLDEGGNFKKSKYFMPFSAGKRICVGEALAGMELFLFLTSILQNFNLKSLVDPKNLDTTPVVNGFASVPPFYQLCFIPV
Chain of Voltage-gated inwardly rectifying potassium channel KCNH2 (Q12809 whole entry): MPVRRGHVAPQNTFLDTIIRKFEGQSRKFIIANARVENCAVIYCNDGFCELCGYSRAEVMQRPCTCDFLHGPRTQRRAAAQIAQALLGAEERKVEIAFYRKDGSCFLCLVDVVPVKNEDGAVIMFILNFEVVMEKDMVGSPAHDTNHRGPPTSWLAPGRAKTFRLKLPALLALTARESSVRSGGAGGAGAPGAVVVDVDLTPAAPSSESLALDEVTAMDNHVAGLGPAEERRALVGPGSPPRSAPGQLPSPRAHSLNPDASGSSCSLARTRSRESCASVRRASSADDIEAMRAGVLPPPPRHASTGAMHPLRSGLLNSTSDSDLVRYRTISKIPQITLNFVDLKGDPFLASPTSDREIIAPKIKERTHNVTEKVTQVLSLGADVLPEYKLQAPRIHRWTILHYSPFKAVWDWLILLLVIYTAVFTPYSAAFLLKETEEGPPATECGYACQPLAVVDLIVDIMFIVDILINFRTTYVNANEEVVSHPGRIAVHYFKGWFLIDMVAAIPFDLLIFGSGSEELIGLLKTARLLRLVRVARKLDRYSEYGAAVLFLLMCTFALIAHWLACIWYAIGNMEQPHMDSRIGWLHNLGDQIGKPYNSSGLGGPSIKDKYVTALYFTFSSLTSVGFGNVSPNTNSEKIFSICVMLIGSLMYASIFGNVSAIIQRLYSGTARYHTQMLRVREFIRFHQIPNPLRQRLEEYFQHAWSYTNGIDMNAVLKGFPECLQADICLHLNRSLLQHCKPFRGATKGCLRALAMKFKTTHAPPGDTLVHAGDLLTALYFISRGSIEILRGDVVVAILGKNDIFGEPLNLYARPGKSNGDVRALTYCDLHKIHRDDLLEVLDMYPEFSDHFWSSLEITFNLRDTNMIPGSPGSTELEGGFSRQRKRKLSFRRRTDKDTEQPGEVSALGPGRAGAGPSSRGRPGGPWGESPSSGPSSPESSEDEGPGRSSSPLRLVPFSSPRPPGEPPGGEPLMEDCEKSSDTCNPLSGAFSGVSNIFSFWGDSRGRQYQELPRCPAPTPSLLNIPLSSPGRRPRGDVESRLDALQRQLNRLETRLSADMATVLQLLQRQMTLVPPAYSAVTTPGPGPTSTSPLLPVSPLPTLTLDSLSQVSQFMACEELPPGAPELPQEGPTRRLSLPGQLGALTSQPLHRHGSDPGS

Row | SMILES | inhibition [8] [%] | IC50 [19] [nM] | pIC50 [19] | EC50 [11, 21] [nM] | EC50 ([12]; Plasmodium falciparum, 72 h) [nM] | EC50 [18, 22] [nM] | further results
1 | CC1CN(C)CC[C@H]1c1cc(-c2ccncc2)c(-c2ccc(F)cc2)[nH]1.Cl.Cl (single isomer, unassigned) | 0.4 | 14 | 7.85 |  |  |  | efflux ratio at 2 h [1]: 1.27; IC50 [2]: 5670 nM; microsomal CLint [3]: 24.1 µL/min/mg; IC50 [4]: > 10000 nM; IC50 [5]: > 10000 nM; remaining at 1 h [6]: 101%; Papp at 2 h [7]: 17 ×10⁻⁶ cm/s; fraction unbound at 17 h [9]: 0.587; remaining at 1 h [10]: 104%; EC50 [11]: 350 nM; EC50 [12]: 900 nM; microsomal CLint [13]: 49.2 µL/min/mg; fraction unbound at 22 h [14]: 0.115; half-life [15]: 28.2 min; half-life [16]: 57.5 min; IC50 [17]: > 10000 nM; EC50 [18]: 170 nM; solubility at 1.5 h [20]: 190 µM
2 | C[C@H]1CN(C)CC[C@@H]1c1cc(-c2ccncc2)c(-c2ccc(F)cc2)[nH]1.Cl.Cl | 30 | 14 | 7.87 | 170 | 780 | 80 | efflux ratio at 2 h [1]: 1.52; IC50 [2]: 6150 nM; microsomal CLint [3]: < 23 µL/min/mg; IC50 [4]: > 10000 nM; IC50 [5]: > 10000 nM; remaining at 1 h [6]: 100%; Papp at 2 h [7]: 22.6 ×10⁻⁶ cm/s; fraction unbound at 17 h [9]: 0.63; remaining at 1 h [10]: 99%; microsomal CLint [13]: < 23 µL/min/mg; fraction unbound at 22 h [14]: 0.122; half-life [15]: > 60 min; half-life [16]: > 60 min; IC50 [17]: 4780 nM; solubility at 1.5 h [20]: 187 µM
3 | C[C@@H]1CN(C)CCC1c1cc(-c2ccncc2)c(-c2ccc(F)cc2)[nH]1.Cl.Cl (single isomer, unassigned) | 45 | 9 | 8.05 |  |  |  | efflux ratio at 2 h [1]: 1.59; IC50 [2]: 5740 nM; microsomal CLint [3]: < 23 µL/min/mg; IC50 [4]: > 10000 nM; IC50 [5]: > 10000 nM; remaining at 1 h [6]: 98%; Papp at 2 h [7]: 22.1 ×10⁻⁶ cm/s; fraction unbound at 17 h [9]: 0.518; remaining at 1 h [10]: 103%; EC50 [11]: 60 nM; EC50 [12]: 1220 nM; microsomal CLint [13]: 44.5 µL/min/mg; fraction unbound at 22 h [14]: 0.119; half-life [15]: 31.2 min; half-life [16]: > 60 min; IC50 [17]: 7480 nM; EC50 [18]: 50 nM; solubility at 1.5 h [20]: 176 µM
4 | CCOC(=O)c1c(C2CCN(C)CC2)[nH]c(-c2ccc(F)cc2)c1-c1ccncc1.Cl.Cl | 0 | 1030 | 5.99 | 2600 | 1630 | 2470 | 
5 | C[C@@H]1CN(C)CC[C@@H]1c1cc(-c2ccncc2)c(-c2ccc(F)cc2)[nH]1.Cl.Cl | -0.3 | 13 | 7.89 | 70 | 760 | 50 | efflux ratio at 2 h [1]: 1; IC50 [2]: > 10000 nM; microsomal CLint [3]: 38.8 µL/min/mg; IC50 [4]: > 10000 nM; IC50 [5]: > 10000 nM; remaining at 1 h [6]: 99%; Papp at 2 h [7]: 20.1 ×10⁻⁶ cm/s; fraction unbound at 17 h [9]: 0.502; remaining at 1 h [10]: 103%; microsomal CLint [13]: < 23 µL/min/mg; fraction unbound at 22 h [14]: 0.155; half-life [15]: > 60 min; half-life [16]: 35.7 min; IC50 [17]: > 10000 nM; solubility at 1.5 h [20]: 181 µM
6 | CN1C[C@@H]2C(c3cc(-c4ccncc4)c(-c4ccc(F)cc4)[nH]3)[C@@H]2C1.Cl.Cl (some centres undefined) | 6 | 207 | 6.59 | 670 | 900 | 640 | 
7 | CN1CCC(c2cc(-c3ccncc3CO)c(-c3ccc(F)cc3)[nH]2)CC1.Cl.Cl | 1 | 1520 | 5.82 | 2400 | 6230 | 481 | 
8 | CN1CCC(c2cc(-c3ccncc3)c(-c3ccc(F)cc3)n2C)CC1.Cl.Cl | 4 | 112 | 6.95 | 2300 | 690 | 710 | 
9 | C[C@H]1C[C@H](c2cc(-c3ccncc3)c(-c3ccc(F)cc3)[nH]2)CCN1C.Cl.Cl (racemic) | 7 | 51 | 7.1 | 560 | 950 | 380 | 
10 | CN1CCC(c2cc(-c3ccncc3C#N)c(-c3ccc(F)cc3)[nH]2)CC1.Cl.Cl | 2 | 35 | 7.46 | 340 | 4400 | 360 | 
11 | CN1CCC(c2cc(-c3ccncc3Br)c(-c3ccc(F)cc3)[nH]2)CC1.Cl.Cl | 13 | 35 | 7.46 | 340 | 1670 | 330 | 
12 | CN1CCC(c2cc(-c3ccncc3Cl)c(-c3ccc(F)cc3)[nH]2)CC1.Cl.Cl | 12 | 152 | 7.47 | 1440 | 3950 | 460 | 
13 | C[C@@H]1C[C@H](c2cc(-c3ccncc3)c(-c3ccc(F)cc3)[nH]2)CCN1C.Cl.Cl (racemic) | 10 | 41 | 6.97 | 670 | 900 | 360 | 
14 | CN1C2CCC1CC(c1cc(-c3ccncc3)c(-c3ccc(F)cc3)[nH]1)C2.Cl.Cl (centres undefined) | -9 | 132 | 7.09 | 490 | 670 | 350 | 
